From patent publication US20140213513A1 (Sanofi, priority 2012, published 2014) come the findings set out here.

*1 amine or outer side, *2 acyl side, *3 side chain or, on linkers, in order; H or OH if unused. Where a SMILES comes first, the peptide text is derived from it. Side-chain parts run from the residue outwards. [ ]: non-standard residue; d: D form. The star is where a group is joined. γGlu = O=C(O)[C@H](CCC(=O)[*:2])N[*:1]; Palmitoyl = CCCCCCCCCCCCCCCC(=O)*; Aib = CC(C)(N)C(=O)O

Common to all, as to assay type: cell-based
What all share (settings): Table 7; cAMP formation
(Cyclic AMP is a second messenger, typically raised through Gs and lowered through Gi signalling.)

For test [1], the target named is T1, human GIP receptor (hGIP R) (Homo sapiens, UniProt P48546).
T1 construct: expressed in transfected cells
T1 sequence (P48546 22-466): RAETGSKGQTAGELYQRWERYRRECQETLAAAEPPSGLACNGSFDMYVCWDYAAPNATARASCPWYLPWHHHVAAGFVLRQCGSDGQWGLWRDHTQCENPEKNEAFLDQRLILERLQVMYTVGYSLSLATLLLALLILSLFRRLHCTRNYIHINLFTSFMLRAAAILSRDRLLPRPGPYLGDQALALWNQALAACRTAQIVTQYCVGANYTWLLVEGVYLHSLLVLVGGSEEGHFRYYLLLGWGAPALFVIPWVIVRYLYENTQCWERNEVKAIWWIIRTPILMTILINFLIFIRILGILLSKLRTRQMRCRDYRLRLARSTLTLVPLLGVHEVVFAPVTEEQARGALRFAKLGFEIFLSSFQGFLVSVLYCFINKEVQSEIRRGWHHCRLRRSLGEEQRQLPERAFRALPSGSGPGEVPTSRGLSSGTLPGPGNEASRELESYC
The experiment in a line: cAMP response of HEK-293 cells stably expressing human GIP receptor (HTRF). Here is the method: (§1) cAMP content of cells was determined using a kit from Cisbio Corp. (cat. no. 62AM4PEC) based on HTRF (Homogenous Time Resolved Fluorescence). For preparation, cells were split into T175 culture flasks and grown overnight to near confluency in medium (DMEM/10% FBS). Medium was then removed and cells washed with PBS lacking calcium and magnesium, followed by proteinase treatment with accutase (Sigma-Aldrich cat. no. A6964). Detached cells were washed and resuspended in assay buffer (1×HBSS; 20 mM HEPES, 0.1% BSA, 2 mM IBMX) and cellular density determined. They were then diluted to 400000 cells/ml and 25 μl-aliquots dispensed into the wells of 96-well plates. For measurement, 25 μl of test compound in assay buffer was added to the wells, followed by incubation for 30 minutes at room temperature.

Test [2] deals with T2, human glucagon receptor (hGLUC R) (Homo sapiens, UniProt P47871).
T2 construct: expressed in transfected cells
T2 sequence (P47871 26-477): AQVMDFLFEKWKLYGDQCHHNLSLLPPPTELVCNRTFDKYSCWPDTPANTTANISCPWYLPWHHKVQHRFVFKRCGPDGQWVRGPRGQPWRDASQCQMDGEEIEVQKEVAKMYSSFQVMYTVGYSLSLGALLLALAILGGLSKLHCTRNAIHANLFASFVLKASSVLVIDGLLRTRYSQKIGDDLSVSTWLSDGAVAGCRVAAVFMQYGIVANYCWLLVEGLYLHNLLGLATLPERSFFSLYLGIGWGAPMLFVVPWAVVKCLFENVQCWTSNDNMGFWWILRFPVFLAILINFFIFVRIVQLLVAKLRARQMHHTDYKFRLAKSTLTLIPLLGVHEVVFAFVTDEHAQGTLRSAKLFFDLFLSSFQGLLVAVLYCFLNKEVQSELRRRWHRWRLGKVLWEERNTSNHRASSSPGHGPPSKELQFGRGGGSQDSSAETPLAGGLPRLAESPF
The experiment in a line: cAMP response of HEK-293 cells stably expressing human glucagon receptor (HTRF). The method, then: as §1
(In general: In TR-FRET formats the signal depends on donor and acceptor labels being close together.)

The target in test [3] is T3, human GLP-1 receptor (hGLP-1 R) (Homo sapiens, UniProt P43220).
T3 construct: expressed in transfected cells
T3 sequence (P43220 24-463): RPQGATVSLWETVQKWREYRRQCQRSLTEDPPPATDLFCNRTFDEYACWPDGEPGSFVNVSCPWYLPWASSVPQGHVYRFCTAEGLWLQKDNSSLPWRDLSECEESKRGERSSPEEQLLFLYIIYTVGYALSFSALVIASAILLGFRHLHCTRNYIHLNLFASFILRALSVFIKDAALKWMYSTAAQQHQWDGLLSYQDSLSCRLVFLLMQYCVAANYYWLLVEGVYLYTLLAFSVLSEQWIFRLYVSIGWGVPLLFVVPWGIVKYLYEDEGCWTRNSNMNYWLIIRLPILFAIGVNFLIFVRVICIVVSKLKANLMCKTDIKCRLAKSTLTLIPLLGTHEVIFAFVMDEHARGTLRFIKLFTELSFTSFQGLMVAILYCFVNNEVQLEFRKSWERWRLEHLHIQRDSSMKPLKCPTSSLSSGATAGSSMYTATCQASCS
The experiment in a line: cAMP response of HEK-293 cells stably expressing human GLP-1 receptor (HTRF). The method, then:
as §1

Broadly, the EC50 is the concentration needed to bring the measured effect to its halfway point. A high value points to lower potency in that assay. As to `CCCCCCCCCCCCCCCC(=O)N[C@@H](CCC(=O)NCCCC[C@H](NC(=O)[C@H](CCC(N)=O)NC(=O)[C@@H](NC(=O)[C@H](CO)NC(=O)[C@H](CC(C)C)NC(=O)[C@H](CC(=O)O)NC(=O)[C@H](CO)NC(=O)[C@@H](NC(=O)[C@H](Cc1ccccc1)NC(=O)[C@@H](NC(=O)CNC(=O)[C@H](CCC(N)=O)NC(=O)C(C)(C)NC(=O)[C@@H](N)Cc1ccc(O)cc1)[C@@H](C)O)[C@@H](C)O)[C@@H](C)CC)C(=O)N[C@@H](CCC(=O)O)C(=O)N[C@@H](CCCCN)C(=O)NC(C)(C)C(=O)N[C@@H](C)C(=O)N[C@@H](C)C(=O)NC(C)(C)C(=O)N[C@@H](CCC(=O)O)C(=O)N[C@@H](Cc1ccccc1)C(=O)N[C@H](C(=O)N[C@@H](CCC(=O)O)C(=O)N[C@@H](Cc1c[nH]c2ccccc12)C(=O)N[C@@H](CC(C)C)C(=O)N[C@@H](CCCCN)C(=O)N[C@@H](CC(N)=O)C(=O)N[C@H](C(=O)NCC(=O)N1CCC[C@H]1C(=O)N[C@@H](CO)C(=O)N[C@@H](CO)C(=O)NCC(=O)N[C@@H](C)C(=O)N1CCC[C@H]1C(=O)N1CCC[C@H]1C(=O)N1CCC[C@H]1C(=O)N[C@@H](CO)C(N)=O)[C@@H](C)O)[C@@H](C)CC)C(=O)O` [SEQ ID NO: 9, Y-Aib-Q-G-T-F-T-S-D-L-S-I-Q-K(yE-x53)-E-K-Aib-A-A-Aib-E-F-I-E-W-L-K-N-T-G-P-S-S-G-A-P-P-P-S-NH2] (H-Y[Aib]QGTFTSDLSIQK([γGlu-Palmitoyl])EK[Aib]AA[Aib]EFIEWLKNTGPSSGAPPPS-NH2), the concentration for a half-maximal effect (EC50) in test [1] was determined as 0.009 nM; in test [2] it was 0.445 nM; in test [3], 0.0055 nM.

Regarding `CCCCCCCCCCCCCCCC(=O)N[C@@H](CCC(=O)NCCCC[C@H](NC(=O)[C@H](CCC(N)=O)NC(=O)[C@@H](NC(=O)[C@H](CO)NC(=O)[C@H](CC(C)C)NC(=O)[C@H](CC(=O)O)NC(=O)[C@H](CO)NC(=O)[C@@H](NC(=O)[C@H](Cc1ccccc1)NC(=O)[C@@H](NC(=O)CNC(=O)[C@H](CCC(N)=O)NC(=O)C(C)(C)NC(=O)[C@@H](N)Cc1ccc(O)cc1)[C@@H](C)O)[C@@H](C)O)[C@@H](C)CC)C(=O)N[C@@H](CCC(=O)O)C(=O)N[C@@H](CCCCN)C(=O)N[C@@H](Cc1ccc(O)cc1)C(=O)N[C@@H](C)C(=O)N[C@@H](C)C(=O)NC(C)(C)C(=O)N[C@@H](CCC(=O)O)C(=O)N[C@@H](Cc1ccccc1)C(=O)N[C@H](C(=O)N[C@@H](CCC(=O)O)C(=O)N[C@@H](Cc1c[nH]c2ccccc12)C(=O)N[C@@H](CC(C)C)C(=O)N[C@@H](CCCCN)C(=O)N[C@@H](CC(N)=O)C(=O)N[C@H](C(=O)NCC(=O)N1CCC[C@H]1C(=O)N[C@@H](CO)C(=O)N[C@@H](CO)C(=O)NCC(=O)N[C@@H](C)C(=O)N1CCC[C@H]1C(=O)N1CCC[C@H]1C(=O)N1CCC[C@H]1C(=O)N[C@@H](CO)C(N)=O)[C@@H](C)O)[C@@H](C)CC)C(=O)O` [SEQ ID NO: 10, Y-Aib-Q-G-T-F-T-S-D-L-S-I-Q-K(yE-x53)-E-K-Y-A-A-Aib-E-F-I-E-W-L-K-N-T-G-P-S-S-G-A-P-P-P-S-NH2] (H-Y[Aib]QGTFTSDLSIQK([γGlu-Palmitoyl])EKYAA[Aib]EFIEWLKNTGPSSGAPPPS-NH2), the concentration giving a half-maximal response (EC50) in test [1] stood at 0.0144 nM; in test [2], 0.667 nM; in test [3], 0.0052 nM.

Regarding `CCCCCCCCCCCCCCCC(=O)N[C@@H](CCC(=O)NCCCC[C@H](NC(=O)[C@H](CCC(N)=O)NC(=O)[C@@H](NC(=O)[C@H](CO)NC(=O)[C@H](CC(C)C)NC(=O)[C@H](CC(=O)O)NC(=O)[C@H](CO)NC(=O)[C@@H](NC(=O)[C@H](Cc1ccccc1)NC(=O)[C@@H](NC(=O)CNC(=O)[C@H](CCC(N)=O)NC(=O)C(C)(C)NC(=O)[C@@H](N)Cc1ccc(O)cc1)[C@@H](C)O)[C@@H](C)O)[C@@H](C)CC)C(=O)N[C@@H](CCC(=O)O)C(=O)N[C@@H](CCCCN)C(=O)N[C@@H](CCCNC(=N)N)C(=O)NC(C)(C)C(=O)N[C@@H](C)C(=O)NC(C)(C)C(=O)N[C@@H](CCC(=O)O)C(=O)N[C@@H](Cc1ccccc1)C(=O)N[C@H](C(=O)N[C@@H](CCC(=O)O)C(=O)N[C@@H](Cc1c[nH]c2ccccc12)C(=O)N[C@@H](CC(C)C)C(=O)N[C@@H](CCCCN)C(=O)N[C@@H](CC(N)=O)C(=O)N[C@H](C(=O)NCC(=O)N1CCC[C@H]1C(=O)N[C@@H](CO)C(=O)N[C@@H](CO)C(=O)NCC(=O)N[C@@H](C)C(=O)N1CCC[C@H]1C(=O)N1CCC[C@H]1C(=O)N1CCC[C@H]1C(=O)N[C@@H](CO)C(N)=O)[C@@H](C)O)[C@@H](C)CC)C(=O)O` [SEQ ID NO: 11, Y-Aib-Q-G-T-F-T-S-D-L-S-I-Q-K(yE-x53)-E-K-R-Aib-A-Aib-E-F-I-E-W-L-K-N-T-G-P-S-S-G-A-P-P-P-S-NH2] (H-Y[Aib]QGTFTSDLSIQK([γGlu-Palmitoyl])EKR[Aib]A[Aib]EFIEWLKNTGPSSGAPPPS-NH2), the figures for the concentration for a half-maximal effect (EC50) in test [1], in test [2] and in test [3] were 0.0144 nM, 0.0669 nM and 0.0038 nM, respectively.

Regarding `CCCCCCCCCCCCCCCC(=O)N[C@@H](CCC(=O)NCCCC[C@H](NC(=O)[C@H](CCC(N)=O)NC(=O)[C@@H](NC(=O)[C@H](CO)NC(=O)[C@H](CC(C)C)NC(=O)[C@H](CC(=O)O)NC(=O)[C@H](CO)NC(=O)[C@@H](NC(=O)[C@H](Cc1ccccc1)NC(=O)[C@@H](NC(=O)CNC(=O)[C@H](CCC(N)=O)NC(=O)C(C)(C)NC(=O)[C@@H](N)Cc1ccc(O)cc1)[C@@H](C)O)[C@@H](C)O)[C@@H](C)CC)C(=O)N[C@@H](CCC(=O)O)C(=O)N[C@@H](CCCCN)C(=O)N[C@@H](C)C(=O)N[C@@H](C)C(=O)N[C@@H](C)C(=O)NC(C)(C)C(=O)N[C@@H](CCC(=O)O)C(=O)N[C@@H](Cc1ccccc1)C(=O)N[C@H](C(=O)N[C@@H](CCC(=O)O)C(=O)N[C@@H](Cc1c[nH]c2ccccc12)C(=O)N[C@@H](CC(C)C)C(=O)N[C@@H](CCCCN)C(=O)N[C@@H](CC(N)=O)C(=O)N[C@H](C(=O)NCC(=O)N1CCC[C@H]1C(=O)N[C@@H](CO)C(=O)N[C@@H](CO)C(=O)NCC(=O)N[C@@H](C)C(=O)N1CCC[C@H]1C(=O)N1CCC[C@H]1C(=O)N1CCC[C@H]1C(=O)N[C@@H](CO)C(N)=O)[C@@H](C)O)[C@@H](C)CC)C(=O)O` [SEQ ID NO: 12, Y-Aib-Q-G-T-F-T-S-D-L-S-I-Q-K(yE-x53)-E-K-A-A-A-Aib-EFIEWLKNTGPSSGAPPPSN H2] (H-Y[Aib]QGTFTSDLSIQK([γGlu-Palmitoyl])EKAAA[Aib]EFIEWLKNTGPSSGAPPPS-NH2), the EC50 amounted to 0.008 nM in test [1], 0.139 nM in test [2] and 0.0055 nM in test [3].

With `CCCCCCCCCCCCCCCC(=O)N[C@@H](CCC(=O)NCCCC[C@H](NC(=O)[C@H](CCC(N)=O)NC(=O)[C@@H](NC(=O)[C@H](CO)NC(=O)[C@H](CC(C)C)NC(=O)[C@H](CC(=O)O)NC(=O)[C@H](CO)NC(=O)[C@@H](NC(=O)[C@H](Cc1ccccc1)NC(=O)[C@@H](NC(=O)CNC(=O)[C@H](CCC(N)=O)NC(=O)C(C)(C)NC(=O)[C@@H](N)Cc1ccc(O)cc1)[C@@H](C)O)[C@@H](C)O)[C@@H](C)CC)C(=O)N[C@@H](CCC(=O)O)C(=O)N[C@@H](CCCCN)C(=O)N[C@@H](CCCNC(=N)N)C(=O)N[C@@H](Cc1ccc(O)cc1)C(=O)N[C@@H](C)C(=O)NC(C)(C)C(=O)N[C@@H](CCC(=O)O)C(=O)N[C@@H](Cc1ccccc1)C(=O)N[C@H](C(=O)N[C@@H](CCC(=O)O)C(=O)N[C@@H](Cc1c[nH]c2ccccc12)C(=O)N[C@@H](CC(C)C)C(=O)N[C@@H](CCCCN)C(=O)N[C@@H](CC(N)=O)C(=O)N[C@H](C(=O)NCC(=O)N1CCC[C@H]1C(=O)N[C@@H](CO)C(=O)N[C@@H](CO)C(=O)NCC(=O)N[C@@H](C)C(=O)N1CCC[C@H]1C(=O)N1CCC[C@H]1C(=O)N1CCC[C@H]1C(=O)N[C@@H](CO)C(N)=O)[C@@H](C)O)[C@@H](C)CC)C(=O)O` [SEQ ID NO: 13, Y-Aib-Q-G-T-F-T-S-D-L-S-I-Q-K(yE-x53)-E-K-R-Y-A-Aib-EFIEWLKNTGPSSGAPPPSN H2] (H-Y[Aib]QGTFTSDLSIQK([γGlu-Palmitoyl])EKRYA[Aib]EFIEWLKNTGPSSGAPPPS-NH2), the values for the EC50 in test [1], in test [2] and in test [3] were 0.0263 nM, 0.0202 nM and 0.0141 nM, respectively.
